How the values were obtained:
[1] = test system: NZM mice; assay: Urinalysis: total urine protein (proteinuria), NZM mice (Example 2); type: in vivo, mouse; conditions: G5 1.5 mg/kg ip, 3× wk
[2] = test system: NZM mice; assay: Splenomegaly (spleen mass), NZM mice (Example 2); type: in vivo, mouse; conditions: G5 1.5 mg/kg ip, 3× wk
[3] = test system: MRL/lpr mice; assay: Antinuclear antibody (ANA) ELISA (anti-chromatin, anti-Smith Ag, anti-dsDNA IgG), serum of MRL/lpr mice; type: in vivo, mouse; conditions: G6: 1.5 mg/kg ip, 3× wk
From the text: For all ANA ELISA assays, values below the limit of detection set by the lowest point along the standard or set by the manufacturer are considered out of range and are not estimated, but assumed the lowest point along the standard curve for that particular assay.

[4] = test system: MRL/lpr mice; assay: Survival / mortality, MRL/lpr mice (Example 1); conditions: G6: 1.5 mg/kg ip, 3× wk; vehicle 92
Method: Six week old lupus-prone, female, MRL/lpr (Jackson Labs, #000485) and non-lupus prone control MRL/MpJ (Jackson Labs, #000486) mice are obtained from Jackson Laboratories (Bar Harbor, Me.) at 6-weeks of age. All mice are maintained on a 24 hour light/dark cycle, with food and water available ad libitum. All experimental animal procedures are approved by and in accordance to the regulations of the Institutional Animal Care and Use Committee (IACUC) of Cephalon, Inc; approved IACUC protocol #03-040 and #03-03-041.
Due to this impaired tolerance mechanism, a percentage of all T and B cells that enter the periphery have a high likelihood of responding to self protein/tissues and thus initiate autoimmunity early in life. The MRL/lpr model mice develop several chronic inflammatory disease-like symptoms that are characteristic of early and late lupus including the generation of anti-nuclear antibodies, arthritis, dermatological manifestations, immunocomplex-mediated glomerulonephritis leading to proteinuria and eventual death. Lesser characterized phenomenon are CNS and cardiac manifestations, both of which are more common in humans. […] Mortality is higher in the females and occurs around 25 weeks of age, renal disease includes glomerulonephritis, glomerular infiltrates, sclerosis and vasculitis. Both splenomegaly and lymphomegaly associated with dermatitis can also be observed.
MRL/lpr mice are first randomized, initial bleeds collected, and body weights recorded for baseline measurements (FIG. 1). All mice are individually ear tagged and are monitored throughout the entire experiment (e.g., “Group#-Cage letter-Mouse#”, so “3B5”=Group 3 (G3), cage B, mouse #5). Mice are age-matched and treatment started at 6-8 weeks of age. Cheek bleeds and urine collection continues weekly throughout the experiment. Mice are individually tracked for several parameters including cytokine and ANA levels, proteinuria, body mass, lymphomegaly, general health, and mortality. All parameters are evaluated bi-monthly except mortality which is monitored daily. All groups consist of a minimum of at least 10-12 mice per group. Ex vivo experiments include flow cytometry analyses for plasma cells, serum complement C3 and ANA levels; urine protein and leukocytes, serum cytokine profiling, renal histo pathology, and determination of compound levels (pharmacokinetics (PK)) in the spleen, kidney and plasma. Mice are tracked on an individual basis. For all data, mice are grouped into populations and data graphed as mean±SEM. End-stage readouts are analyzed as described in the MATERIALS AND METHODS section (above) and in FIG. 1.
Vehicle alone is provided orally twice weekly (p.o.). Both proteasome inhibitors are suspended in the vehicle solution. Bi-monthly bleeds and urine are collected and frozen at […] until assayed. End analyses include kidney histology, splenocyte B-cell Elispots, flow cytometry for B and T cell populations, PD markers, serum cytokines, antibody and complement levels. In addition, urine proteinuria is determined for all animals.
In group two (G2), COMPOUND A was administered at a dose of 3 mg/kg iv twice weekly. In group three (G3), COMPOUND A was administered at a dose of 10 mg/kg p.o. twice weekly. […] In the new group five (G5), bortezomib was administered at a dose of 0.3 mg/kg iv twice weekly. Dexamethasone was administered at a dose of 1.5 mg/kg/2d (M, W, F) ip. Vehicle was 3% DMSO/10% Solutol/87% PBS. In those instances in which mice could not be injected via the iv route, agents were administered ip as noted in Table 1.

[5] = test system: NZM mice; type: in vivo, mouse

SMILES: C[C@@H]1C[C@H]2[C@@H]3CCC4=CC(=O)C=C[C@]4(C)[C@@]3(F)[C@@H](O)C[C@]2(C)[C@@]1(O)C(=O)CO [dexamethasone, Dexamethasone, reference compound]
- Urine proteinuria AUC, percent change vs vehicle [1]: 27%
- Spleen mass EOS, percent change vs vehicle [2]: −59%
- ANA AUC Smith Ag, percent change vs vehicle [3]: −45%
- ANA AUC chromatin, percent change vs vehicle [3]: −47%
- ANA AUC dsDNA, percent change vs vehicle [3]: −59%
- EOS survival, true EOS mouse percentage from starting population [4]: 83%
- Cytokine IL-12 AUC, percent change vs vehicle ([5]; G5 1.5 mg/kg ip, 3× wk): −48%
- Cytokine IL-13 AUC, percent change vs vehicle ([5]; G5 1.5 mg/kg ip, 3× wk): −56%
- Cytokine IL-17A AUC, percent change vs vehicle ([5]; G5 1.5 mg/kg ip, 3× wk): −55%
- Cytokine IP-10 AUC, percent change vs vehicle ([5]; G5 1.5 mg/kg ip, 3× wk): −37%
- Cytokine MIG AUC, percent change vs vehicle ([5]; G5 1.5 mg/kg ip, 3× wk): −68%
- Cytokine TNFα AUC, percent change vs vehicle ([5]; G5 1.5 mg/kg ip, 3× wk): 79%
- p, serum IL-12p40/p70 concentration vs G5 Bortezomib 0.3 mg/kg 1× wk ip ([5]; G8 1.5 mg/kg 3× wk ip): NS (NS = not significant (p > 0.05))
- p, serum IL-12p40/p70 concentration vs G6 Bortezomib 0.3 mg/kg 2× wk ip ([5]; G8 1.5 mg/kg 3× wk ip): NS (NS = not significant (p > 0.05))
- p, serum IL-12p40/p70 concentration vs G7 CTX 50 mg/kg 1× wk ip ([5]; G8 1.5 mg/kg 3× wk ip): NS (NS = not significant (p > 0.05))
- p, serum IL-12p40/p70 concentration vs G9 Vehicle 1× wk ip ([5]; G8 1.5 mg/kg 3× wk ip): NS (NS = not significant (p > 0.05))
- p, serum IL-13 concentration vs G5 Bortezomib 0.3 mg/kg 1× wk ip ([5]; G8 1.5 mg/kg 3× wk ip): NS (NS = not significant (p > 0.05))
- p, serum IL-13 concentration vs G6 Bortezomib 0.3 mg/kg 2× wk ip ([5]; G8 1.5 mg/kg 3× wk ip): NS (NS = not significant (p > 0.05))
- p, serum IL-13 concentration vs G7 CTX 50 mg/kg 1× wk ip ([5]; G8 1.5 mg/kg 3× wk ip): p < 0.001
- p, serum IL-13 concentration vs G9 Vehicle 1× wk ip ([5]; G8 1.5 mg/kg 3× wk ip): NS (NS = not significant (p > 0.05))
- p, serum IL-17A concentration vs G5 Bortezomib 0.3 mg/kg 1× wk ip ([5]; G8 1.5 mg/kg 3× wk ip): NS (NS = not significant (p > 0.05))
- p, serum IL-17A concentration vs G6 Bortezomib 0.3 mg/kg 2× wk ip ([5]; G8 1.5 mg/kg 3× wk ip): NS (NS = not significant (p > 0.05))
- p, serum IL-17A concentration vs G7 CTX 50 mg/kg 1× wk ip ([5]; G8 1.5 mg/kg 3× wk ip): p < 0.001
- p, serum IL-17A concentration vs G9 Vehicle 1× wk ip ([5]; G8 1.5 mg/kg 3× wk ip): NS (NS = not significant (p > 0.05))
- p, serum IP-10 concentration vs G5 Bortezomib 0.3 mg/kg 1× wk ip ([5]; G8 1.5 mg/kg 3× wk ip): NS (NS = not significant (p > 0.05))
- p, serum IP-10 concentration vs G6 Bortezomib 0.3 mg/kg 2× wk ip ([5]; G8 1.5 mg/kg 3× wk ip): NS (NS = not significant (p > 0.05))
- p, serum IP-10 concentration vs G7 CTX 50 mg/kg 1× wk ip ([5]; G8 1.5 mg/kg 3× wk ip): p < 0.001
- p, serum IP-10 concentration vs G9 Vehicle 1× wk ip ([5]; G8 1.5 mg/kg 3× wk ip): p < 0.001
- p, serum MIG concentration vs G5 Bortezomib 0.3 mg/kg 1× wk ip ([5]; G8 1.5 mg/kg 3× wk ip): NS (NS = not significant (p > 0.05))
- p, serum MIG concentration vs G6 Bortezomib 0.3 mg/kg 2× wk ip ([5]; G8 1.5 mg/kg 3× wk ip): NS (NS = not significant (p > 0.05))
- p, serum MIG concentration vs G7 CTX 50 mg/kg 1× wk ip ([5]; G8 1.5 mg/kg 3× wk ip): p < 0.001
- p, serum MIG concentration vs G9 Vehicle 1× wk ip ([5]; G8 1.5 mg/kg 3× wk ip): NS (NS = not significant (p > 0.05))
- p, serum TNFα concentration vs G5 Bortezomib 0.3 mg/kg 1× wk ip ([5]; G8 1.5 mg/kg 3× wk ip): NS (NS = not significant (p > 0.05))
- p, serum TNFα concentration vs G6 Bortezomib 0.3 mg/kg 2× wk ip ([5]; G8 1.5 mg/kg 3× wk ip): p <0.01
- p, serum TNFα concentration vs G7 CTX 50 mg/kg 1× wk ip ([5]; G8 1.5 mg/kg 3× wk ip): p <0.05
- p, serum TNFα concentration vs G9 Vehicle 1× wk ip ([5]; G8 1.5 mg/kg 3× wk ip): NS (NS = not significant (p > 0.05))

From US9340559B2, “Proteasome inhibitor delanzomib for use in the treatment of lupus” (Cephalon, Inc., priority 2011, dated 2016)
